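Growth conditions: 96-well plates. Treatment: test compound, 48 hours, 5 concentrations. Analysis: linear interpolation between bracketing concentrations; unreached endpoints set to highest concentration. At the GI50, growth is halved. The concentration for full growth arrest is given as TGI.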
Columns and labels:
Test in all cases: inhibition of tumour cell growth, NCI panel, 48 h
786-0 renal = system: 786-0 renal
A498 renal = system: A498 renal
A549 NSCLC = system: A549 NSCLC
ACHN renal = system: ACHN renal
BT-549 breast = system: BT-549 breast
CAKI-1 renal = system: CAKI-1 renal
CCRF-CEM leukemia = system: CCRF-CEM leukemia
COLO 205 colon = system: COLO 205 colon
DU-145 prostate = system: DU-145 prostate
EKVX NSCLC = system: EKVX NSCLC
HCC-2998 colon = system: HCC-2998 colon
HCT-116 colon = system: HCT-116 colon
HCT-15 colon = system: HCT-15 colon
HL-60(TB) leukemia = system: HL-60(TB) leukemia
HOP-62 NSCLC = system: HOP-62 NSCLC
HS 578T breast = system: HS 578T breast
HT29 colon = system: HT29 colon
IGROV1 ovarian = system: IGROV1 ovarian
K-562 leukemia = system: K-562 leukemia
KM12 colon = system: KM12 colon
LOX IMVI melanoma = system: LOX IMVI melanoma
MALME-3M melanoma = system: MALME-3M melanoma
MCF7 breast = system: MCF7 breast
MDA-MB-231 breast = system: MDA-MB-231 breast
MDA-MB-435 = system: MDA-MB-435
MDA-N = system: MDA-N
MOLT-4 leukemia = system: MOLT-4 leukemia
NCI-H226 lung = system: NCI-H226 lung
NCI-H23 lung = system: NCI-H23 lung
NCI-H460 lung = system: NCI-H460 lung
NCI-H522 lung = system: NCI-H522 lung
NCI/ADR-RES ovarian = system: NCI/ADR-RES ovarian
OVCAR-3 ovarian = system: OVCAR-3 ovarian
OVCAR-5 ovarian = system: OVCAR-5 ovarian
OVCAR-8 ovarian = system: OVCAR-8 ovarian
PC-3 prostate = system: PC-3 prostate
RPMI-8226 leukemia = system: RPMI-8226 leukemia
SF-268 CNS = system: SF-268 CNS
SF-539 CNS = system: SF-539 CNS
SK-MEL-5 melanoma = system: SK-MEL-5 melanoma
SN12C renal = system: SN12C renal
SNB-19 CNS = system: SNB-19 CNS
SR leukemia = system: SR leukemia
SW-620 colon = system: SW-620 colon
U251 CNS = system: U251 CNS
UACC-257 melanoma = system: UACC-257 melanoma
UO-31 renal = system: UO-31 renal
HOP-92 NSCLC = system: HOP-92 NSCLC
M14 melanoma = system: M14 melanoma
OVCAR-4 ovarian = system: OVCAR-4 ovarian
RXF 393 renal = system: RXF 393 renal
SF-295 CNS = system: SF-295 CNS
SK-MEL-2 melanoma = system: SK-MEL-2 melanoma
SK-MEL-28 melanoma = system: SK-MEL-28 melanoma
SK-OV-3 ovarian = system: SK-OV-3 ovarian
SNB-75 CNS = system: SNB-75 CNS
T-47D breast = system: T-47D breast
TK-10 renal = system: TK-10 renal
UACC-62 melanoma = system: UACC-62 melanoma

COc1cc(C2c3cc4c(cc3OC(C)(O)C2C)OCO4)cc(OC)c1OC (stereo unspecified)
TGI (786-0 renal): > 100 µM | TGI (A498 renal): > 100 µM | TGI (A549 NSCLC): 0.761 µM | TGI (ACHN renal): > 100 µM | TGI (BT-549 breast): > 100 µM | TGI (CAKI-1 renal): > 100 µM | TGI (CCRF-CEM leukemia): 16.6 µM | TGI (COLO 205 colon): > 100 µM | TGI (DU-145 prostate): > 100 µM | TGI (EKVX NSCLC): > 100 µM | TGI (HCC-2998 colon): > 100 µM | TGI (HCT-116 colon): 75.2 µM | TGI (HCT-15 colon): > 100 µM | TGI (HL-60(TB) leukemia): 0.53 µM | TGI (HOP-62 NSCLC): > 100 µM | TGI (HS 578T breast): > 100 µM | TGI (HT29 colon): > 100 µM | TGI (IGROV1 ovarian): 76.2 µM | TGI (K-562 leukemia): 11.9 µM | TGI (KM12 colon): 57.6 µM | TGI (LOX IMVI melanoma): > 100 µM | TGI (MALME-3M melanoma): > 100 µM | TGI (MCF7 breast): > 100 µM | TGI (MDA-MB-231 breast): 24 µM | TGI (MDA-MB-435): > 100 µM | TGI (MDA-N): 0.258 µM | TGI (MOLT-4 leukemia): 25.9 µM | TGI (NCI-H226 lung): 13.5 µM | TGI (NCI-H23 lung): > 100 µM | TGI (NCI-H460 lung): > 100 µM | TGI (NCI-H522 lung): 1.19 µM | TGI (NCI/ADR-RES ovarian): > 100 µM | TGI (OVCAR-3 ovarian): > 100 µM | TGI (OVCAR-5 ovarian): > 100 µM | TGI (OVCAR-8 ovarian): > 100 µM | TGI (PC-3 prostate): > 100 µM | TGI (RPMI-8226 leukemia): 0.721 µM | TGI (SF-268 CNS): > 100 µM | TGI (SF-539 CNS): 0.888 µM | TGI (SK-MEL-5 melanoma): 2.36 µM | TGI (SN12C renal): > 100 µM | TGI (SNB-19 CNS): > 100 µM | TGI (SR leukemia): 14.2 µM | TGI (SW-620 colon): > 100 µM | TGI (U251 CNS): > 100 µM | TGI (UACC-257 melanoma): > 100 µM | TGI (UO-31 renal): 81.5 µM

CN(C(=O)c1ccc(C(F)(F)F)cc1)c1ccc(Oc2ccc3c(c2)cc(C(=O)N2CCN(Cc4ccc(OC(F)F)cc4)CC2)n3C)nc1
GI50 (786-0 renal): > 100 µM | TGI (786-0 renal): > 100 µM | GI50 (A498 renal): 0.729 µM | TGI (A498 renal): > 100 µM | GI50 (A549 NSCLC): 3.23 µM | TGI (A549 NSCLC): > 100 µM | GI50 (ACHN renal): > 100 µM | TGI (ACHN renal): > 100 µM | GI50 (BT-549 breast): 6.71 µM | TGI (BT-549 breast): > 100 µM | GI50 (CAKI-1 renal): 2.27 µM | TGI (CAKI-1 renal): > 100 µM | TGI (CCRF-CEM leukemia): > 100 µM | GI50 (COLO 205 colon): 60 µM | TGI (COLO 205 colon): > 100 µM | GI50 (DU-145 prostate): > 100 µM | TGI (DU-145 prostate): > 100 µM | GI50 (EKVX NSCLC): < 0.01 µM | TGI (EKVX NSCLC): > 100 µM | GI50 (HCC-2998 colon): > 100 µM | TGI (HCC-2998 colon): > 100 µM | GI50 (HCT-116 colon): < 0.01 µM | TGI (HCT-116 colon): > 100 µM | GI50 (HCT-15 colon): > 100 µM | TGI (HCT-15 colon): > 100 µM | GI50 (HL-60(TB) leukemia): < 0.012 µM | TGI (HL-60(TB) leukemia): > 100 µM | TGI (HOP-62 NSCLC): > 100 µM | GI50 (HOP-92 NSCLC): 3.02 µM | TGI (HOP-92 NSCLC): > 88.2 µM | GI50 (HS 578T breast): > 91.5 µM | TGI (HS 578T breast): > 100 µM | GI50 (HT29 colon): 33.2 µM | TGI (HT29 colon): > 100 µM | GI50 (IGROV1 ovarian): > 100 µM | TGI (IGROV1 ovarian): > 100 µM | GI50 (K-562 leukemia): < 0.01 µM | TGI (K-562 leukemia): > 100 µM | GI50 (KM12 colon): 35.9 µM | TGI (KM12 colon): > 100 µM | GI50 (LOX IMVI melanoma): 0.882 µM | TGI (LOX IMVI melanoma): > 100 µM | GI50 (M14 melanoma): > 100 µM | TGI (M14 melanoma): > 100 µM | GI50 (MALME-3M melanoma): > 34.9 µM | TGI (MALME-3M melanoma): > 100 µM | GI50 (MCF7 breast): 0.515 µM | TGI (MCF7 breast): 43.4 µM | GI50 (MDA-MB-231 breast): > 80.2 µM | TGI (MDA-MB-231 breast): > 100 µM | GI50 (MDA-MB-435): 3.73 µM | TGI (MDA-MB-435): > 100 µM | GI50 (MOLT-4 leukemia): 0.881 µM | TGI (MOLT-4 leukemia): > 100 µM | GI50 (NCI-H226 lung): 1.44 µM | TGI (NCI-H226 lung): > 100 µM | GI50 (NCI-H23 lung): < 0.01 µM | TGI (NCI-H23 lung): > 100 µM | GI50 (NCI-H460 lung): 3.25 µM | TGI (NCI-H460 lung): > 100 µM | GI50 (NCI-H522 lung): 0.677 µM | TGI (NCI-H522 lung): > 90 µM | GI50 (NCI/ADR-RES ovarian): 0.437 µM | TGI (NCI/ADR-RES ovarian): > 100 µM | GI50 (OVCAR-3 ovarian): 11.3 µM | TGI (OVCAR-3 ovarian): > 100 µM | GI50 (OVCAR-4 ovarian): < 0.01 µM | TGI (OVCAR-4 ovarian): > 49.7 µM | GI50 (OVCAR-5 ovarian): > 100 µM | TGI (OVCAR-5 ovarian): > 100 µM | GI50 (OVCAR-8 ovarian): 1.71 µM | TGI (OVCAR-8 ovarian): > 100 µM | GI50 (PC-3 prostate): 2.24 µM | TGI (PC-3 prostate): > 100 µM | GI50 (RPMI-8226 leukemia): 0.156 µM | TGI (RPMI-8226 leukemia): > 100 µM | GI50 (RXF 393 renal): 49.2 µM | TGI (RXF 393 renal): > 100 µM | GI50 (SF-268 CNS): > 100 µM | TGI (SF-268 CNS): > 100 µM | GI50 (SF-295 CNS): < 0.01 µM | TGI (SF-295 CNS): > 100 µM | GI50 (SF-539 CNS): > 100 µM | TGI (SF-539 CNS): > 100 µM | GI50 (SK-MEL-2 melanoma): 11.9 µM | TGI (SK-MEL-2 melanoma): > 100 µM | GI50 (SK-MEL-28 melanoma): 63.2 µM | TGI (SK-MEL-28 melanoma): > 100 µM | GI50 (SK-MEL-5 melanoma): < 0.0213 µM | TGI (SK-MEL-5 melanoma): 4.82 µM | GI50 (SK-OV-3 ovarian): > 100 µM | TGI (SK-OV-3 ovarian): > 100 µM | GI50 (SN12C renal): > 100 µM | TGI (SN12C renal): > 100 µM | GI50 (SNB-19 CNS): 34.9 µM | TGI (SNB-19 CNS): > 100 µM | GI50 (SNB-75 CNS): 11.7 µM | TGI (SNB-75 CNS): > 84 µM | GI50 (SR leukemia): < 0.01 µM | TGI (SR leukemia): > 100 µM | GI50 (SW-620 colon): 98.2 µM | TGI (SW-620 colon): > 100 µM | GI50 (T-47D breast): 0.253 µM | TGI (T-47D breast): > 58.2 µM | GI50 (TK-10 renal): 15.7 µM | TGI (TK-10 renal): > 96.1 µM | GI50 (U251 CNS): 6 µM | TGI (U251 CNS): > 100 µM | GI50 (UACC-257 melanoma): 0.138 µM | TGI (UACC-257 melanoma): > 100 µM | GI50 (UACC-62 melanoma): 3.96 µM | TGI (UACC-62 melanoma): > 100 µM | GI50 (UO-31 renal): 4.22 µM | TGI (UO-31 renal): > 100 µM

Reference: PubChem BioAssay (NCI)
